SMILES strings stand for the structures.

This assay addresses T1, human M4 muscarinic acetylcholine receptor (Homo sapiens, UniProt P08173).
T1 construct: expressed in transfected cells; host or cells: CHO-K1
T1 sequence (P08173 1-479): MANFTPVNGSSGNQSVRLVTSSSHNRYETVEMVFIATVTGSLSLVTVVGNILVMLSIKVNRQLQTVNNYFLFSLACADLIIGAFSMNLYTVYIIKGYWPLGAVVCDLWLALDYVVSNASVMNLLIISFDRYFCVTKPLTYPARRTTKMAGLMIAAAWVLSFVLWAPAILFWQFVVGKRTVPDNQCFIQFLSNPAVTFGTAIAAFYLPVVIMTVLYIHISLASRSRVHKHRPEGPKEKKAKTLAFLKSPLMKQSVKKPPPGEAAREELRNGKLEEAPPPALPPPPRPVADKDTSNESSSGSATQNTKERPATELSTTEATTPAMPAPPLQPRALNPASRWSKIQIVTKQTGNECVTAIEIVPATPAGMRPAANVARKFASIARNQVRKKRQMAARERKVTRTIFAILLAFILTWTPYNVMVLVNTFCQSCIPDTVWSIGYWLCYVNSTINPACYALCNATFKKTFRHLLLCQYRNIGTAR
In words: human FLIPR-based M4 PAM assay (CHO-K1 cells with human M4 receptor and Gaqi5, calcium dye fluorescence). The note with it: inflection point (IP) of dose response curve, acetylcholine added at 20% of maximum response, read-out: M4 FLIPPR Hu IP. The class given is cell-based. The procedure:
(§1) In a typical experiment the M4 muscarinic acetylcholine receptor modulating activity of the compounds of the present invention was determined in accordance with the following experimental method. CHO-K1 cells stably transfected with human M4 receptor and chimeric G-protein Gaqi5 (Coward P, et al., Analytical Biochemistry, 270:242-248 (1999)) are thawed from liquid N2 storage, resuspended in growth medium, plated in black, clear bottom 384 well plates, and incubated 16-20 hours at 37° C., 5% CO2. On the day of assay, growth medium is removed, the cells are washed 2 times with wash buffer, and cells are incubated in dye loading buffer at 37° C., 5% CO2 for ˜1 hour. Following dye loading the cell plates are placed in a FLIPR Tetra instrument and while monitoring dye fluorescence (excitation 470-495 […]), 10 uL of test substance at increasing concentrations is added, and fluorescence values are recorded for 4 min. Next, 10 uL of acetylcholine is added (final concentration calculated so as to achieve 20% of the maximum acetycholine response), and the fluorescence reading is continued for 3.5 min. In some cases, a third addition of acetylcholine (final concentration calculated to achieve 70% of the maximal acetylcholine response) is performed. The resulting dose response curves are fit to a 4 parameter logistic equation and the final result is determined as the inflection point (IP) of the curve
as §1, with “CHO-K1” for “In a typical experiment the M4 muscarinic acetylcholine receptor modulating activity of the compounds of the present invention was determined in accordance with the following experimental method. CHO-K1”, “Gaqi5” for “Gaqi5 (Coward P, et al., Analytical Biochemistry, 270:242-248 (1999))”, “performed.” for “performed. The resulting dose response curves are fit to a 4 parameter logistic equation and the final result is determined as the inflection point (IP) of the curve”
For the compound `Cn1cc2ccc(-c3nc(C#N)c(F)cc3-c3cnn(CC4(F)CCCC4)c3)cc2n1` [Example 89, 3-fluoro-5-(1-((1-fluorocyclopentyl)methyl)-1H-pyrazol-4-yl)-6-(2-methyl-2H-indazol-6-yl) picolinonitrile], the EC50 was 67 nM.

`Cc1ccc(-c2cnn(CC3(C)CCCC3)c2)c(-c2ccc3cc(F)cnc3c2)n1` [Example 32, 3-fluoro-7-(6-methyl-3-(1-((1-methylcyclopentyl)methyl)-1H-pyrazol-4-yl)pyridin-2-yl) quinoline]: the EC50 came out at 11 nM. Next, `COc1cc2ccc(-c3nc(C(F)F)ccc3-c3cnn(C[C@@H]4CC[C@@H](F)C4)c3)cc2nn1` [Example 122, 7-(6-(difluoromethyl)-3-(1-(((1R,3R)-3-fluorocyclopentyl)methyl)-1H-pyrazol-4-yl)pyridin-2-yl)-3-methoxycinnoline]: 59 nM; `CC1(Cn2cc(-c3ccc(C#N)nc3-c3ccc4cc(Cl)nnc4c3)cn2)CCCC1` [Example 127, 6-(3-chlorocinnolin-7-yl)-5-(1-((1-methylcyclopentyl)methyl)-1H-pyrazol-4-yl)picolinonitrile]: 26 nM. With `Cc1ccc(-c2cnn(C[C@H]3CC[C@H](F)C3)c2)c(-c2ccc3cccnc3c2)n1` (racemic) [Example 30, 7-(3-(1-(((1S,3S and 1R,3R)-3-fluorocyclopentyl)methyl)-1H-pyrazol-4-yl)-6-methylpyridin-2-yl)quinoline] the figure was 32 nM.

With `Cc1cn2ccc(-c3nc(C#N)c(Cl)cc3-c3cnn(CC4(C)CCCC4)c3)cc2n1` [Example 162, 3-chloro-5-(1-((1-methylcyclopentyl)methyl)-1H-pyrazol-4-yl)-6-(2-methylimidazo[1,2-a]pyridin-7-yl)picolinonitrile], the EC50 came to 40 nM. Take `FC(F)(F)c1ccc(-c2cnn(CC3CCCC3)c2)c(-c2ccc3cccnc3c2)n1` [Example 104, 7-(3-(1-(cyclopentylmethyl)-1H-pyrazol-4-yl)-6-(trifluoromethyl)pyridin-2-yl)quinoline]: the EC50 is 20 nM. For `Cn1nc2ccc(-c3nc(C#N)ccc3-c3cnn(CC4(C)CCCC4)c3)cc2n1` [Example 125, 6-(2-methyl-2H-benzo[d][1,2,3]triazol-5-yl)-5-(1-((1-methylcyclopentyl)methyl)-1H-pyrazol-4-yl)picolinonitrile], the EC50 came out at 76 nM. Next, `CC1(Cn2cc(-c3ccc(C#N)nc3-c3cnc4c(c3)C(=O)OC4)cn2)CCCC1` [Example 73, 5-(1-((1-methylcyclopentyl)methyl)-1H-pyrazol-4-yl)-6-(5-oxo-5,7-dihydrofuro [3,4-b]pyridin-3-yl) picolinonitrile]: 41 nM. Consider `CC1(Cn2cc(-c3ccc(C#N)nc3-c3ccc4ccc(Cl)nc4c3)cn2)CCCC1` [Example 126, 6-(2-chloro-quinolin-7-yl)-5-(1-((1-methylcyclo-pentyl)methyl)-1H-pyrazol-4-yl)picolinonitrile], for which the EC50 is 78 nM. Next, `N#Cc1ccc(-c2cnn(CC3(F)CCCC3)c2)c(-c2ccn3cc(CF)nc3c2)n1` [Example 135, 5-(1-((1-fluorocyclopentyl)methyl)-1H-pyrazol-4-yl)-6-(2-(fluoromethyl)imidazo[1,2-a]pyridin-7-yl)picolinonitrile]: 24 nM. Turning to `Cn1cnc2cc(-c3ncc(Cl)cc3-c3cnn(CC4(C)CCCC4)c3)cnc21` [Example 109, 6-(5-chloro-3-(1-((1-methylcyclopentyl)methyl)-1H-pyrazol-4-yl)pyridin-2-yl)-3-methyl-3H-imidazo[4,5-b] pyridine], the EC50 came out at 69 nM.

For the compound `COc1cc2ccc(-c3nc(C(F)F)ccc3-c3cnn(C[C@H]4CC[C@H](F)C4)c3)cc2nn1` [Example 123, 7-(6-(difluoromethyl)-3-(1-(((1S,3S)-3-fluorocyclopentyl)methyl)-1H-pyrazol-4-yl)pyridin-2-yl)-3-methoxy-cinnoline], the EC50 amounted to 63 nM. As for `Cc1ccc(-c2cnn(CC3CCCC3)c2)c(-c2ccc3cc(F)cnc3c2)n1` [Example 13, 7-(3-(1-(cyclopentylmethyl)-1H-pyrazol-4-yl)-6-methylpyridin-2-yl)-3-fluoroquinoline], the EC50 was 23 nM. With `Cc1ccc(-c2cnn(CC3(F)CCCC3)c2)c(-c2cnc3c(c2)ncn3C)n1` [Example 18, 6-(3-(1-((1-fluorocyclopentyl)methyl)-1H-pyrazol-4-yl)-6-methylpyridin-2-yl)-3-methyl-3H-imidazo[4,5-b]pyridine] the figure was 187 nM; with `Cc1nc2cc(-c3nc(C#N)ccc3-c3cnn(CC4(F)CCCC4)c3)ccn2n1` [Example 61, 5-(1-((1-fluorocyclopentyl)methyl)-1H-pyrazol-4-yl)-6-(2-methyl-[1,2,4]triazolo[1,5-a]pyridin-7-yl)picolinonitrile], 37 nM; with `Cc1ccc(-c2cnn(CC3(F)CCCC3)c2)c(-c2ccc3c(c2)C(=O)NC3)n1` [Example 17, 6-(3-(1-((1-fluorocyclopentyl)methyl)-1H-pyrazol-4-yl)-6-methylpyridin-2-yl)isoindolin-1-one], 26 nM. On to `Fc1cnc(-c2ccn3cc(C(F)(F)F)nc3c2)c(-c2cnn(CC3(F)CCCC3)c2)c1` [Example 98, 7-(5-fluoro-3-(1-((1-fluorocyclopentyl)methyl)-1H-pyrazol-4-yl)pyridin-2-yl)-2-(trifluoromethyl)imidazo [1,2-a]pyridine], for which the EC50 was 82 nM. As to `Clc1ccc(-c2cnn(CC3CCCC3)c2)c(-c2ccc3cccnc3c2)n1` [Example 165, 7-(6-chloro-3-(1-(cyclopentylmethyl)-1H-pyrazol-4-yl)pyridin-2-yl)quinoline], the EC50 worked out at 7 nM. Consider `Cn1nnc2cc(-c3nc(C#N)ccc3-c3cnn(CC4(F)CCCC4)c3)ccc21` [Example 56, 5-(1-((1-fluorocyclopentyl)methyl)-1H-pyrazol-4-yl)-6-(1-methyl-1H-benzo[1,2,3]triazol-5-yl)picolinonitrile], for which the EC50 came out at 41 nM. Next, `Cn1cnc2cc(-c3nc(C#N)c(F)cc3-c3cnn(CC4(C)CCCC4)c3)ccc21` [Example 86, 3-fluoro-6-(1-methyl-1H-benzo[d]imidazol-5-yl)-5-(1-((1-methylcyclopentyl)methyl)-1H-pyrazol-4-yl)picolinonitrile]: 18 nM; `CC1(C)NC(=O)c2cc(-c3nc(C#N)ccc3-c3cnn(CC4(F)CCCC4)c3)ccc21` [Example 46, 6-(1,1-dimethyl-3-oxoisoindolin-5-yl)-5-(1-((1-fluorocyclopentyl)methyl)-1H-pyrazol-4-yl)picolinonitrile49]: 102 nM; `COc1cc2ccc(-c3nc(C)ccc3-c3cnn(CC4(C)CCC(F)(F)C4)c3)cc2nn1` (single isomer, unassigned; isomer b) [Example 151, (S or R)-7-(3-(1-((3,3-difluoro-1-methylcyclo-pentyl)methyl)-1H-pyrazol-4-yl)-6-methylpyridin-2-yl)-3-methoxycinnoline isomer B]: 30 nM.

Take `Cc1cc(-c2cnn(CC3(F)CCCC3)c2)c(-c2ccn3ncnc3c2)nc1C#N` [Example 143, 6-([1,2,4]triazolo[1,5-a]pyridin-7-yl)-5-(1-((1-fluorocyclopentyl)methyl)-1H-pyrazol-4-yl)-3-methylpicolinonitrile]: the EC50 came to 71 nM.

Source of the values: patent publication US11149036B2, “3-(1H-pyrazol-4-yl)pyridine allosteric modulators of the M4 muscarinic acetylcholine receptor” (Merck Sharp & Dohme Corp., priority 2017, dated 2021).
